These results are taken from patent US10947227B2, “Tricyclic heterocyclic compounds as sting activators” (Incyte Corporation, priority 2018, dated 2021).

In the first experiment the test system is IRF3 activation in THP-1 Dual Cells. The experiment is described as follows: IRF3 activation assay in THP-1 Dual Cells (QUANTI-Blue readout). It is filed as cell-based. The following applies: Homo sapiens, THP1-Dual, 24 h, Table 2, 24 hours incubation. Summed up: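 THP-1 Dual cells (100,000/well) were incubated with serially diluted compounds 24 h at 37 °C. […]; EC50 from percent control activity versus log concentration.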
On to `CCn1nc(C)cc1C(=O)Nc1nc2cc(C(N)=O)cc(OCCCOC)c2n1C/C=C/Cn1c2nc(-c3cc(C)nn3CC)ncc2c2cc(C(N)=O)cc(OCCCNC(=O)OCCC(=O)O)c21` [Example 51, (E)-3-(3-(6-carbamoyl-9-(4-(5-carbamoyl-2-(1-ethyl-3-methyl-1H-pyrazole-5-carboxamido)-7-(3-methoxypropoxy)-1H-benzo[d]imidazol-1-yl)but-2-enyl)-2-(1-ethyl-3-methyl-1H-pyrazol-5-yl)-9H-pyrimido[4,5-b]indol-8-yloxy)propylcarbamoyloxy)propanoic Acid], for which the EC50 (usually the midpoint of the concentration-response curve) was less than 50 nM.

Consider `CCn1nc(C)cc1C(=O)Nc1nc2cc(C(N)=O)cc(OCCCOC)c2n1C/C=C/Cn1c2nc(-c3cc(C)nn3CC)ncc2c2cc(C(N)=O)cc(OCCCOC(=O)NCCC(=O)O)c21` [Example 52, (E)-3-((3-(6-carbamoyl-9-(4-(5-carbamoyl-2-(1-ethyl-3-methyl-1H-pyrazole-5-carboxamido)-7-(3-methoxypropoxy)-1H-benzo[d]imidazol-1-yl)but-2-enyl)-2-(1-ethyl-3-methyl-1H-pyrazol-5-yl)-9H-pyrimido[4,5-b]indol-8-yloxy)propoxy)carbonylamino)propanoic Acid], for which the EC50 lay in the range of 50 to 200 nM.

Turning to `CCn1nc(C)cc1C(=O)Nc1nc2cc(C(N)=O)cc(OCCCOC)c2n1C/C=C/Cn1c2nc(-c3cc(C)nn3CC)ncc2c2cc(C(N)=O)cc(OCCOCCOCCC(=O)O)c21` [Example 53, (E)-3-(2-(2-(6-carbamoyl-9-(4-(5-carbamoyl-2-(1-ethyl-3-methyl-1H-pyrazole-5-carboxamido)-7-(3-methoxypropoxy)-1H-benzo[d]imidazol-1-yl)but-2-enyl)-2-(1-ethyl-3-methyl-1H-pyrazol-5-yl)-9H-pyrimido[4,5-b]indol-8-yloxy)ethoxy)ethoxy)propanoic Acid], the EC50 is 50 to 200 nM.

Regarding `CCn1nc(C)cc1C(=O)Nc1nc2cc(C(N)=O)cc(OCCCOC)c2n1C/C=C/Cn1c2nc(-c3cc(C)nn3CC)ncc2c2cc(C(N)=O)cc(OCCOCCOCCOCCC(=O)O)c21` [Example 54, (E)-3-(2-(2-(2-(6-carbamoyl-9-(4-(5-carbamoyl-2-(1-ethyl-3-methyl-1H-pyrazole-5-carboxamido)-7-(3-methoxypropoxy)-1H-benzo[d]imidazol-1-yl)but-2-enyl)-2-(1-ethyl-3-methyl-1H-pyrazol-5-yl)-9H-pyrimido[4,5-b]indol-8-yloxy)ethoxy)ethoxy)ethoxy)propanoic Acid], the EC50 was 50 to 200 nM.

With `CCn1nc(C)cc1C(=O)Nc1nc2cc(C(N)=O)cc(OC)c2n1C/C=C/Cn1c2nc(-c3cc(C)nn3CC)ncc2c2cc(C(N)=O)cc(OCCC3CCN(CCCC(=O)O)CC3)c21` [Example 55, (E)-4-(4-(2-(6-carbamoyl-9-(4-(5-carbamoyl-2-(1-ethyl-3-methyl-1H-pyrazole-5-carboxamido)-7-methoxy-1H-benzo[d]imidazol-1-yl)but-2-enyl)-2-(1-ethyl-3-methyl-1H-pyrazol-5-yl)-9H-pyrimido[4,5-b]indol-8-yloxy)ethyl)piperidin-1-yl)butanoic Acid], the 50% effective concentration (EC50) lay in the range of 50 to 200 nM.

Take `CCn1nc(C)cc1C(=O)Nc1nc2cc(C(N)=O)cc(OC)c2n1C/C=C/Cn1c2nc(-c3cc(C)nn3CC)ncc2c2cc(C(N)=O)cc(OCCC3CCN(C(=O)OCC(=O)O)CC3)c21` [Example 56, (E)-2-(4-(2-(6-carbamoyl-9-(4-(5-carbamoyl-2-(1-ethyl-3-methyl-1H-pyrazole-5-carboxamido)-7-methoxy-1H-benzo[d]imidazol-1-yl)but-2-enyl)-2-(1-ethyl-3-methyl-1H-pyrazol-5-yl)-9H-pyrimido[4,5-b]indol-8-yloxy)ethyl)piperidine-1-carbonyloxy)acetic Acid]: the EC50 lay within 50 to 200 nM.

Consider `CCn1nc(C)cc1C(=O)Nc1nc2cc(C(N)=O)cc(OCCCO)c2n1C/C=C/Cn1c2nc(-c3cc(C)nn3CC)ncc2c2cc(C(N)=O)cc(OCCCOC(=O)NCCC(=O)O)c21` [Example 57, (E)-3-((3-(6-carbamoyl-9-(4-(5-carbamoyl-2-(1-ethyl-3-methyl-1H-pyrazole-5-carboxamido)-7-(3-hydroxypropoxy)-1H-benzo[d]imidazol-1-yl)but-2-enyl)-2-(1-ethyl-3-methyl-1H-pyrazol-5-yl)-9H-pyrimido[4,5-b]indol-8-yloxy)propoxy)carbonylamino)propanoic Acid], for which the EC50 lay in the range of 50 to 200 nM.

On to `CCn1nc(C)cc1C(=O)Nc1nc2cc(C(N)=O)cc(OCCCOC(=O)NCCC(=O)O)c2n1C/C=C/Cn1c2nc(-c3cc(C)nn3CC)ncc2c2cc(C(N)=O)cc(OCCOCCOCCC(=O)O)c21` [Example 58, (E)-3-(((3-((5-carbamoyl-1-(4-(6-carbamoyl-8-(2-(2-(2-carboxyethoxy)ethoxy)ethoxy)-2-(1-ethyl-3-methyl-1H-pyrazol-5-yl)-9H-pyrimido[4,5-b]indol-9-yl)but-2-en-1-yl)-2-(1-ethyl-3-methyl-1H-pyrazole-5-carboxamido)-1H-benzo[d]imidazol-7-yl)oxy)propoxy)carbonyl)amino)propanoic Acid], for which the EC50 was 200 to 500 nM.

In turn, `CCn1nc(C)cc1C(=O)Nc1nc2cc(C(N)=O)cc(OCCCNC(=O)CCC(=O)O)c2n1C/C=C/Cn1c2nc(-c3cc(C)nn3CC)ncc2c2cc(C(N)=O)cc(OCCCOC)c21` [Example 59, (E)-4-((3-((5-carbamoyl-1-(4-(6-carbamoyl-2-(1-ethyl-3-methyl-1H-pyrazol-5-yl)-8-(3-methoxypropoxy)-9H-pyrimido[4,5-b]indol-9-yl)but-2-en-1-yl)-2-(1-ethyl-3-methyl-1H-pyrazole-5-carboxamido)-1H-benzo[d]imidazol-7-yl)oxy)propyl)amino)-4-oxobutanoic Acid] gave an EC50 of 50 to 200 nM.

The target of another experiment is human STING (Homo sapiens, UniProt Q86WV6).
human STING, sequence (Q86WV6 whole entry H232R): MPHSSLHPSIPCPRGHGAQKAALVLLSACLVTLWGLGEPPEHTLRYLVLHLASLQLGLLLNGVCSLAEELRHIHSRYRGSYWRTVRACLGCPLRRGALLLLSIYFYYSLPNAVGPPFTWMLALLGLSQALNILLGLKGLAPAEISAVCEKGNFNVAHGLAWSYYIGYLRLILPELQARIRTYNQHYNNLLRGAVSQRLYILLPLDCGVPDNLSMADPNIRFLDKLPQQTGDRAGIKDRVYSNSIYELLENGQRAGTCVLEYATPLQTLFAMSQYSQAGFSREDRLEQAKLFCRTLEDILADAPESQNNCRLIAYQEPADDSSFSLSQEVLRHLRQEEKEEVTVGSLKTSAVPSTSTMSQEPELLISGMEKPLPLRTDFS
Test: not given
Particulars: cited from earlier work.
For `Cc1ccc2c(=O)c3cccc(CC(=O)O)c3oc2c1C` [DMXAA, 5,6-dimethylxanthenone-4-acetic acid], the “bind and activate human STING” value is on record as “not human STING”.

In another experiment the test system is established tumors.
Test: not given
The following applies: preclinical mouse models; cited from earlier work.
As for `Cc1ccc2c(=O)c3cccc(CC(=O)O)c3oc2c1C` [DMXAA, 5,6-dimethylxanthenone-4-acetic acid], the anti-tumor activity result is on record as “excellent anti-tumor activity”.
